Experimental data reported in patent publication US8853194B2, “Sterol derivatives and their synthesis and use” (priority 2009, dated 2014).
Read-outs that look alike come from different tables or passages of the source.

Columns and labels:
[1] = from LD50 and anti-tumor dose in mice
Text: I. Experiment Item: the anti-tumor therapeutic index of CL168

CAM vessels = experiment: CAM assay, effect on tumor angiogenesis; assay type: in vivo, German Roman embryonated eggs; conditions: 72 hours incubation
Method: A sterile gelatin sponge, previously made into disks with diameter of 5 mm by a hole puncher, was used as sample carrier. […] There were 3 dose groups, wherein 5 μl (low dose group, with a dose volume of 2 μg/embryo), 10 μl (middle dose group, with a dose volume of 4 μg/embryo), and 20 μl (high dose group, with a dose volume of 8 μg/embryo) of the solution were added respectively into gelatin sponge slices by a quantitative liquid transfer. The sponge slices were dried in the sterile environment.
A sterilized egg was placed into a 37° C. incubator with its air chamber upward. In the 7th day, the embryo was positioned on a super-clean bench and sterilized by ethanol, and then it was drilled by a dental drill to form a little hole in the top of the embryo. Egg shell and shell membrane around the hole were carefully removed to form an opening of about 1.2 cm×1.2 cm; after determining a sample-adding site, the air chamber membrane was carefully pricked at the separation place between the chamber and the yolk by a syringe needle; through the prick hole 1-2 drops of sterilized water was injected, which made the chamber membrane and the CAM membrane be separated; after gently removing the upper layer of the chamber membrane with forceps, the CAM membrane in the lower layer was exposed.
A drug-containing carrier was placed, at the junction area of the CAM membrane and the yolk sac membrane, on a site where vessels were less, and then sealed with sterilized transparent adhesive tape to continue to incubate for 72 hours.
After the incubation, the transparent adhesive tape stopped on the top of the air chamber was gently removed by forceps; a mixture of methanol/acetone (1:1, 1-2 ml) was gently added; the room temperature was remained constant for 10 minutes. Then, the CAM membrane was carefully peeled off and placed on a glass slide for observing and taking photos. The effect of the compound on angiogenesis was assessed by counting the numbers of large, middle, small blood vessels radiated by the carrier.

Caspase 3 = conditions: 2.0 μg, HepG2 cells, A405
Method: (§1) 2.1.1 HepG2 cells were digested by trypsin in the cell culture medium. The resulting mixture (6000 was centrifuged for 5 minutes at 4° C. to collect the cells. The supernatant was carefully aspirated and discarded. The remains were washed once with PBS, added to lysate (100 μl/2×10^6 cells); and then, after resuspending the precipitation, ice cracked for 15 minutes.
(§2) 2.1.2 The resulting mixture (16000 g) was centrifuged at 4° C. for 15 minutes.
(§3) 2.1.3 The supernatant was transferred into a centrifugal tube that was pre-cooled by ice bath.
2.2.1 Took out pNA and a suitable amount of Ac-DEVD-PNA (2 mM), put them on the ice bath for later use;
(§4) 2.2.3 Incubating at 37° C. for 120 minutes, detecting Caspase 3 with A405;

Bcl-2 = conditions: tumor tissue, ratio to β-actin, n=3
Method: Detecting the activity of tumor cells VEGF, P53, P21, Bcl-2 (taking β-Actin as an internal reference)
Using Protein Electrophoresis (Western Blot) Method
A bean sized tumor tissue dissected previously was shredded and put into a pre-cooled tissue grinder. 400 μl tissue lysis solution was added. After 10 minutes carefully grinding, the mixture was transferred into a 1.5 ml centrifugal tube, and then, after intensely vortexing the tube for 15 seconds, the mixture was placed on ice for 10 minutes and repeatedly oscillated. After centrifuging 20 minutes (12000 rpm), the supernatant was collected, transferred into a pre-cooled Eppendorf tube, and then separately charged and frozen stored at −80° C. for detecting the activity level of various antibodies.
3.4.3 Reaction with the first antibody: The first antibody was diluted by TBST solution at a ratio of 1:200, and then reacted with the PVDF film at 4° C. for a night. In the next day, after balanced at room temperature for one hour, the reaction mixture was washed with TBST for 3 times.

mouse sarcoma cells S180 = tested on: mouse sarcoma cells S180
Method: Ascites mice S180 and H22 that had been vaccinated 7 days were sacrificed by cervical, from which ascites were obtained under sterile conditions respectively; the obtained ascites were washed twice with culture medium RPMI1640, and prepared to a 2×10^7/ml suspension in sterile physiological saline. The suspension of cell S180 was inoculated subcutaneously in the right axillas of 40 mice (0.1 ml/mouse) to produce solid tumor models; while the suspension of cell H22 was inoculated in abdominal cavities of 40 mice (0.2 ml/mouse) by conditional means under sterile conditions to produce ascites tumor models.
90 mice were randomly divided into 9 groups of 3 types, wherein the first type group was a normal control group, the second type groups were S180 solid tumor groups including a positive (cyclophosphamide) control group, a negative control group, a low dose group and a high dose group, and the third type groups were H22 ascites groups including a positive (cyclophosphamide) control group, a negative control group, a low dose group and a high dose group. There were 10 mice in each group. The experiment was repeated for three times.
[…], the negative control group was injected same volume of corn oil, and the positive control group was injected cyclophosphamide injection solution with the dose of 0.02 g/(Kg.d). The used injection volume was 0.1 ml/mouse and the injection was given as intraperitoneal injection every other day for 15 days. During the 15 days, general activities, fur, feces, etc. of the mice were daily observed. 24 hours after the last administration, mice that had been inoculated subcutaneously with S180 were sacrificed by cervical, from which tumors, thymus and spleen were taken out. After the last administration, mice that had been inoculated in abdominal cavities with H22 were conventionally bred continually, weighted and observed the survival time every day until all the mice in the negative group were dead.
After finishing the administration in all mice in the solid tumor group, the mice were sacrificed and their spleens and livers were weighed by electronic balance. The spleen index was equivalent to the spleen weight (mg) of mice in each group divided by the weight of the mice, while the liver index was equivalent to the liver weight […] divided by the weight (g) of the mice.
On the next day after drug withdrawal, the mice in the solid-tumor […] group were weighed and sacrificed by cervical, wherein the serum was collected by eye bleeding for later use in subsequent experiments. Tumor tissues were dissected and weighed by electronic balance. The tumor inhibition rate was calculated as follows. Tumor Inhibition Rate(%)=[(mean tumor weight of negative control group−mean tumor weight of treatment group)/mean tumor weight of control group]×100%

VEGF = conditions: 16 mg/kg (low dose group), OD at 450 nm
Method: Before taking tumors out, blood was collected by eye bleeding from mice in the four groups, i.e. the negative control group, the positive CTX control group, the high dose (32 mg/kg) group and the low dose (16 mg/kg) group.
1.1 Preparing reagents, samples and standards;
1.2 Adding the prepared samples and standards, and reacting for 90 minutes at 37° C.;
1.3 Washing the plate twice, adding biotinylated antibody working solution, and reacting for 60 minutes at 37° C.;
1.4 Washing the plate for three times, adding ABC working solution, and reacting for 30 minutes at 37° C.;
1.5 Washing the plate for five times, adding TMB color liquid, and reacting in dark for 15 minutes at 37° C.;
1.6 Adding TMB stop solution, and measuring OD value at 450 nm.

Caspase 8 = conditions: 2.0 μg, HepG2 cells
Method: as §1, §2, §3, §4
(§5) 2.2.4 Adding Ac-IETD-PNA (2 mM) and Ac-LEHD-PNA (2 mM), respectively, for detecting Caspase 8, 9

Caspase 9 = conditions: 2.0 μg, HepG2 cells
Method: as §1, §2, §3, §4, §5

[2] = S180 sarcoma mice, low dose 16 mg/kg i.p. every other day for 15 days

CC(C)CCC[C@@H](C)[C@H]1CC[C@@H]2[C@]1(C)CC[C@H]1[C@]23C=C[C@]2(CC(=O)CC[C@]12C)OO3 [CL168-6, 5α,8α-cyclicobioxygen-6-cholesten-3-one]
anti-tumor therapeutic index (TI) [1]: 49.3 | anti-tumor therapeutic index (TI) ([1]; listed as CL168): about 49.3 | Large vessels (number of the vessels) (CAM vessels; 2 ug/embryo): 3.5 ± 1.8 | Middle vessels (number of the vessels) (CAM vessels; 2 ug/embryo): 13.2 ± 3.7 | Small vessels (number of the vessels) (CAM vessels; 2 ug/embryo): 8.8 ± 2.3 | Large vessels (number of the vessels) (CAM vessels; 4 ug/embryo): 3.6 ± 1.9 | Middle vessels (number of the vessels) (CAM vessels; 4 ug/embryo): 11.2 ± 3.2 | Small vessels (number of the vessels) (CAM vessels; 4 ug/embryo): 6.5 ± 2.5 | Large vessels (number of the vessels) (CAM vessels; 8 ug/embryo): 2.5 ± 2.0 | Middle vessels (number of the vessels) (CAM vessels; 8 ug/embryo): 12.6 ± 5.6 | Small vessels (number of the vessels) (CAM vessels; 8 ug/embryo): 4.0 ± 2.8 | OD value of Caspase3 (Caspase 3; 24 h): 0.190 | OD value of Caspase3 (Caspase 3; 48 h): 0.185 | relative expression level of bcl-2 (Bcl-2): 0.75±0.04 | Tumor weight (g) (mouse sarcoma cells S180; S180 sarcoma mice, high dose 32 mg/kg i.p. every other day for 15 days): 0.629 ± 0.133^(3) g | Tumor inhibition rate (%) (mouse sarcoma cells S180; S180 sarcoma mice, high dose 32 mg/kg i.p. every other day for 15 days, 32 mg/kg): 54.58% | Tumor weight (g) (mouse sarcoma cells S180; [2]): 0.771 ± 0.407^ g | Weight increase (mouse sarcoma cells S180; [2]): 6.71 ± 1.22 g | Tumor inhibition rate (%) (mouse sarcoma cells S180; S180 sarcoma mice, low dose 16 mg/kg i.p. every other day for 15 days, 16 mg/kg): 44.33% | Liver index (100 g/g) (mouse sarcoma cells S180; mouse, in vivo, ip, 16 mg/kg): 4.45 ± 0.19 100 g/g | Spleen index (mg/g) (mouse sarcoma cells S180; mouse, in vivo, ip, 16 mg/kg): 5.32 ± 0.68^(2)(4) mg/g | Liver index (100 g/g) (mouse sarcoma cells S180; mouse, in vivo, ip, 32 mg/kg): 4.38 ± 0.13 100 g/g | Spleen index (mg/g) (mouse sarcoma cells S180; mouse, in vivo, ip, 32 mg/kg): 5.34 ± 0.73^(2)(4) mg/g | Weight increase (mouse sarcoma cells S180; mouse, in vivo, ip, 32 mg/kg): 6.00 ± 1.11 g | OD value of serum VEGF (VEGF): 0.2064 ± 0.0114^□ | OD value of Caspase8 (Caspase 8; 24 h): 0.413 | OD value of Caspase8 (Caspase 8; 48 h): 0.408 | OD value of Caspase9 (Caspase 9; 24 h): 0.156 | OD value of Caspase9 (Caspase 9; 48 h): 0.146
